Data taken from patent publication EP0466251A1, “Elfamycin-resistant mutants” (priority 1990, dated 1992).
In brackets after ≈: the same amount, converted by molar mass.

What was measured:
Type in all cases: cell-based
[1] = tested on: S. ramocissimus CBS 190.69; assay: growth of plated mycelium, minimal inhibitory concentration; details: mycelium pregrown in YMG medium without mocimycin; 1 ml of a 16 hrs culture plated
Text: (§1) Essentially identical results were obtained when for each of the strains spores were substituted by mycelium, pregrown in YMG medium without mocimycin.

S. ramocissimus R1V [2] = assay: as above; details: mycelium pregrown in YMG medium without mocimycin; 1 ml of a 16 hrs culture plated
Text: as §1

[3] = tested on: S. ramocissimus CBS 190.69; assay: germination and growth of spores on solid medium (HI-agar); set-up: key to Germination and growth of spores: +++ = good growth; ++ = slow growth; + = very slow growth; - = no growth
Description: (§2) Similar results were obtained on solid medium (HI-agar, Difco) containing 0 to 1 g/l mocimycin; spores from S. ramocissimus R1V and S. ramocissimus CBS 190.69 were diluted such that approximately 200 colony forming units were applied to each agar plate. Incubation of the plates was at 30°C for 5 days. For the control strain S. ramocissimus CBS 190.69 no colonies appeared above 0.1 g/l mocimycin; on the contrary, spores of S. ramocissimus strain R1V quantitatively were able to germinate and form colonies at least up to 0.75 g/l.

S. ramocissimus R1V [4] = assay: as above; set-up: key to Germination and growth of spores: +++ = good growth; ++ = slow growth; + = very slow growth; - = no growth
Description: as §2

[5] = tested on: S. ramocissimus CBS 190.69; assay: regeneration of protoplasts on regeneration medium; details: for Regeneration efficiency of protoplasts: regeneration medium
Description: (§3) Spores were isolated essentially as described by D. Hopwood et al. (cited above), and used to inoculate YMG medium (yeast extract 4 g/l, malt extract 10 g/l, glucose 4 g/l) containing 0.5% glycine. Protoplasts were obtained by lysozyme treatment of this culture, transformed as described by D. Hopwood et al. (cited above) with plasmid pMTST1VΔS and pMTST1TΔS. Subsequently the transformed protoplasts were spread on regeneration medium, and incubated at 30°C. Regeneration medium was prepared by mixing equal volumes of sporulation medium and stabilizer medium. Stabilizer medium consisted of NaNO₃ 3 g/l, K₂HPO₄.3H₂O 0.085 g/l, K₂SO₄ 0.25 g/l, FeSO₄.7H₂O 0.01 g/l, trace element solution 0.1 ml, Tris 3.03 g/l, NaCl 2.92 g/l, sucrose 103 g/l, glucose 10 g/l, MgCl₂.6H₂O 5 g/l, CaCl₂.2H₂O 1.5 g/l, and agar 20 g/l, adjusted to pH 7.2 with 4N HCl. […] After 24 hrs the regeneration plates were overlaid with 3 ml soft agar containing 20 µg/ml thiostrepton (D. Hopwood et al., cited above) and incubated at 30°C for 5 days.
(§4) Another test was carried out using protoplasts of strains S. ramocissimus CBS 190.69 and S. ramocissimus R1V, prepared as described in Example 7. […] Thus protoplasts were plated on regeneration medium (Example 7) containing 0 to 0.1 g/l mocimycin. Under these conditions protoplasts of S. ramocissimu CBS 190.69 were able to regenerate only at mocimycin concentrations below 0.02 g/l; regeneration of S. ramocissimus R1V protoplasts in the presence of up to 0.1 g/l mocimycin occurred with the same efficiency as without mocimycin (Table 2).

S. ramocissimus R1V [6] = assay: regeneration of protoplasts on regeneration medium; details: for Regeneration efficiency of protoplasts: regeneration medium
Description: as §3, §4

[7] = tested on: S. ramocissimus CBS 190.69; assay: germination and growth of spores in liquid YMG medium; details: 5.10⁷ spores/ml, 25 ml YMG medium, shake flasks, 5 days at 30°C
Description: (§5) Spores, mycelium, and protoplasts of strain S. ramocissimus R1V were examined with respect to the minimal inhibitory concentration of mocimycin on their growth properties.
(§6) Spores of strain S. ramocissimus R1V and the control S. ramocissimus CBS 190.69 were inoculated at 5.10⁷ spores/ml in parallel shake flasks containing 25 ml YMG medium and mocimycin at concentrations ranging from 0 to 1 g/l. Incubation was for 5 days at 30°C. For the control strain 0.15 g/l mocimycin inhibited germination (and/or growth) of the spores, whereas spores of S. ramocissimus strain R1V still germinated and grew at mocimycin concentrations up to 0.75 g/l.

S. ramocissimus R1V [8] = assay: as above; details: 5.10⁷ spores/ml, 25 ml YMG medium, shake flasks, 5 days at 30°C
Description: as §5, §6

[9] = approximately 200 colony forming units per plate, 30°C for 5 days
[10] = regeneration medium containing 0 to 0.1 g/l mocimycin

C/C=C\C=C\[C@@H]1O[C@](O)([C@H](CC)C(=O)NC/C=C/C=C(\C)[C@@H](OC)[C@H](C)[C@@H]2O[C@H](/C=C/C=C/C=C(\C)C(=O)c3c(O)cc[nH]c3=O)[C@H](O)[C@@H]2O)[C@H](O)[C@H](O)C1(C)C [mocimycin, Mocimycin]
minimal inhibitory concentration [1]: 0.15 g/L (≈ 188 µM) | minimal inhibitory concentration (S. ramocissimus R1V [2]): 0.75 g/L (≈ 941 µM) | mocimycin concentration above which no colonies appeared [3, 9]: above 0.1 g/l | Germination and growth of spores ([3]; mocimycin 0.10 g/l): + | Germination and growth of spores ([3]; mocimycin 0.20 g/l): - | Germination and growth of spores ([3]; mocimycin 0.40 g/l): - | Germination and growth of spores ([3]; mocimycin 0.60 g/l): - | Germination and growth of spores ([3]; mocimycin 0.75 g/l): - | Germination and growth of spores ([3]; mocimycin 1.0 g/l): - | mocimycin concentration up to which spores were able to germinate and form colonies (S. ramocissimus R1V [4]; [9]): ≥ 0.75 g/L | Germination and growth of spores (S. ramocissimus R1V [4]; mocimycin 0.10 g/l): +++ | Germination and growth of spores (S. ramocissimus R1V [4]; mocimycin 0.20 g/l): +++ | Germination and growth of spores (S. ramocissimus R1V [4]; mocimycin 0.40 g/l): ++ | Germination and growth of spores (S. ramocissimus R1V [4]; mocimycin 0.60 g/l): ++ | Germination and growth of spores (S. ramocissimus R1V [4]; mocimycin 0.75 g/l): + | Germination and growth of spores (S. ramocissimus R1V [4]; mocimycin 1.0 g/l): - | mocimycin concentrations at which protoplasts were able to regenerate [5, 10]: below 0.02 g/l | Regeneration efficiency of protoplasts ([5]; mocimycin 0.01 g/l): 40% | Regeneration efficiency of protoplasts ([5]; mocimycin 0.02 g/l): 0% | Regeneration efficiency of protoplasts ([5]; mocimycin 0.04 g/l): 0% | Regeneration efficiency of protoplasts ([5]; mocimycin 0.07 g/l): 0% | Regeneration efficiency of protoplasts ([5]; mocimycin 0.10 g/l): 0% | mocimycin concentration up to which regeneration occurred with the same efficiency as without mocimycin (S. ramocissimus R1V [6]; [10]): up to 0.1 g/l | Regeneration efficiency of protoplasts (S. ramocissimus R1V [6]; mocimycin 0.01 g/l): 100% | Regeneration efficiency of protoplasts (S. ramocissimus R1V [6]; mocimycin 0.02 g/l): 100% | Regeneration efficiency of protoplasts (S. ramocissimus R1V [6]; mocimycin 0.04 g/l): 100% | Regeneration efficiency of protoplasts (S. ramocissimus R1V [6]; mocimycin 0.07 g/l): 90% | Regeneration efficiency of protoplasts (S. ramocissimus R1V [6]; mocimycin 0.10 g/l): 80% | mocimycin concentration that inhibited germination (and/or growth) of the spores [7]: 0.15 g/L | mocimycin concentrations at which spores still germinated and grew (S. ramocissimus R1V [8]): up to 0.75 g/l
